In one assay the target is T1, human arginase I (ARG I) (Homo sapiens, UniProt P05089).
T1 sequence (P05089 1-322): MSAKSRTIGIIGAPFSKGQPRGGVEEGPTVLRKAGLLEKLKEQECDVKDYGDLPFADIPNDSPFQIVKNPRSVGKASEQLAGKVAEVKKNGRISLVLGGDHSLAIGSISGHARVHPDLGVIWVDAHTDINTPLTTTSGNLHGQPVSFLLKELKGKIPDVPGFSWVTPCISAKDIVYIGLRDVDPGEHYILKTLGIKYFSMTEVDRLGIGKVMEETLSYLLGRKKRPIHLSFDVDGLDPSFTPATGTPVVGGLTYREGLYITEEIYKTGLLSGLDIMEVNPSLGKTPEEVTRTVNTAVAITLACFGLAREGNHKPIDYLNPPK
Kind of assay: Inhibition of arginase I, spectrophotometric urea assay at 530 nm. Conditions: potency rank 1-5; pH 7.4, 37° C., 60 minutes. It counts as biochemical. As to the method: (§1) The assay established the concentration of inhibitor that is required to reduce arginase activity by 50% (IC50).
(§2) Inhibition of arginase I (ARG I) and arginase II (ARG II) by the inventive compounds is followed spectrophotometrically at 530 nm. The compound to be tested is dissolved in DMSO at an initial concentration 50-fold greater than its final concentration in the cuvette. 10 μl of the stock solution is diluted in 90 μl of the assay buffer that comprises 0.1M sodium phosphate buffer containing 130 mM NaCl, pH 7.4, to which is added ovalbumin (OVA) at a concentration of 1 mg/ml. Solutions of arginase I and II are prepared in 100 mM sodium phosphate buffer, pH 7.4 containing 1 mg/ml of OVA to give an arginase stock solution at a final concentration of 100 ng/ml.
(§3) To each well of a 96-well microtiter plate is add 40 μl of enzyme, 10 μl of an inventive compound and 10 μl of enzyme substrate (L-arginine+manganese sulfate). For wells that are used as positive controls, only the enzyme and its substrate are added, while wells used as negative controls contain only manganese sulfate.
(§4) After incubating the microtiter plate at 37° C. for 60 minutes, 150 μl of a urea reagent obtained by combining equal proportions (1:1) of reagents A and B is added to each well of the microtiter plate to stop the reaction. The urea reagent is made just before use by combining Reagent A (10 mM o-phthaldialdehyde, and 0.4% polyoxyethylene (23) lauryl ether (w/v) in 1.8 M sulfuric acid) with Reagent B (1.3 mM primaquine diphosphate, 0.4% polyoxyethylene (23) lauryl ether (w/v), 130 mM boric acid in 3.6 M sulfuric acid). After quenching the reaction mixture, the microtiter plate is allowed to stand for an additional 10 minutes at room temperature to allow color development. The inhibition of arginase is computed by measuring the optical density (OD) of the reaction mixture at 530 nm and normalizing the OD value to percent inhibition observed in the control. The normalized OD is then used to generate a dose-response curve by plotting the normalized OD values against log [concentration] and using regression analysis to compute the IC50 values.

The target of a further assay is T2, arginase II (ARG II) (Homo sapiens, UniProt P78540).
T2 sequence (P78540 23-354): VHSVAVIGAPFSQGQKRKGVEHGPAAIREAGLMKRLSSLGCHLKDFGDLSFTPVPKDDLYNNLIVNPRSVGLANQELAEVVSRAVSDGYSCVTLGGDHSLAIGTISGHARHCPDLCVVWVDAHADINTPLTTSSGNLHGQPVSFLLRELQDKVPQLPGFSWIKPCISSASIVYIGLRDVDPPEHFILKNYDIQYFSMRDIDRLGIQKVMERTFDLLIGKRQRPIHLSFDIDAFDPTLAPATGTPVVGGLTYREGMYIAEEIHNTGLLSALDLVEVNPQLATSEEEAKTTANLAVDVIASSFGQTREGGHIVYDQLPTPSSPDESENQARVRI
Nature of the assay: Inhibition of arginase II, spectrophotometric urea assay at 530 nm. It counts as biochemical. Conditions: potency rank 1-5; pH 7.4, 37° C., 60 minutes. As to the method:
as §1, §2, §3, §4

A further assay concerns bacterial arginase. The conditions noted are these: cited from earlier work.
The subject of another assay is tumor bearing mice. The conditions noted are these: cited from earlier work.
The subject of another assay is murine chronic model. Conditions: murine chronic asthma model; cited from earlier work.
The subject of assay [1] is animals undergoing experimental autoimmune encephalomyelitis (EAE). Conditions: mouse, in vivo; cited from earlier work.
The subject of assay [2] is spontaneously hypertensive rats. Conditions: cited from earlier work.

In general, IC50 refers to the concentration that gives 50% inhibition. `N[C@@]1(C(=O)O)C[C@@H](CNC2CCC2)C[C@@H]1CCCB(O)O` [Example 5, (1S,2S,4S)-1-amino-2-(3-boronopropyl)-4-((cyclobutylamino)methyl)cyclopentanecarboxylic acid]: the values for the concentration for half-maximal inhibition (IC50) on human arginase I (ARG I) and against arginase II (ARG II) were 26 to 100 nM and 101 to 500 nM, respectively.

Regarding `NC(=NCCC[C@H](N)C(=O)O)NO` [NOHA], in the assay with bacterial arginase, the “CD3 expression on T-cells” value is recorded as “reestablished” and the “production of NO by macrophages” value is given as “enhanced”.

As to `N[C@@]1(C(=O)O)C[C@@H](CNC2CCc3ccccc3C2)C[C@@H]1CCCB(O)O` (stereo partly drawn) [Example 4, (1S,2S,4S)-1-amino-2-(3-boronopropyl)-4-(((1,2,3,4-tetrahydronaphthalen-2-yl)amino)methyl)cyclopentanecarboxylic acid], the IC50 at human arginase I (ARG I) and at arginase II (ARG II) was 26 to 100 nM in each case.

As for `N[C@@]1(C(=O)O)C[C@@H](CNCc2ccccc2)C[C@@H]1CCCB(O)O` [Example 1, (1S,2S,4S)-1-amino-4-((benzylamino)methyl)-2-(3-boronopropyl)cyclopentanecarboxylic acid], the IC50 on human arginase I (ARG I) and on arginase II (ARG II) was 26 to 100 nM in each case. `Nc1ccn([C@@H]2O[C@H](CO)[C@@H](O)C2(F)F)c(=O)n1` [gemcitabine]: in the assay on tumor bearing mice, the MDSC immunesuppression entry was “eliminates” and the tumor growth result is “delayed tumor growth”. As to `N[C@@H](CSCCB(O)O)C(=O)O` [S-(2-boronoethyl)-L-cysteine], in the assay on murine chronic model, the “methacholine induced responsiveness of the central airways” value is on record as “attenuated”.

With `N[C@@]1(C(=O)O)C[C@@H](CNCc2ccc(-c3ccc(Cl)cc3)cc2)C[C@@H]1CCCB(O)O` [Example 2, (1S,2S,4S)-1-amino-2-(3-boronopropyl)-4-((((4′-chloro-[1,1′-biphenyl]-4-yl)methyl)amino)methyl)cyclopentanecarboxylic acid], the IC50 against human arginase I (ARG I) and against arginase II (ARG II) was 26 to 100 nM throughout. As for `NC(CCCCB(O)O)C(=O)O` (stereo not shown) [ABH, amino-6-boronohexanoic acid], the “severity of EAE versus control animals” value in assay [1] is on record as “much milder form of EAE”. For the compound `O=c1[nH]cc(F)c(=O)[nH]1` [5-Fluorouracil], in the assay with tumor bearing mice, the MDSC immunesuppression entry is given as “eliminates” and the tumor growth result was “delayed tumor growth”. `N[C@@]1(C(=O)O)CNC[C@@H]1CCCB(O)O` [Example 9, (3R,4S)-3-amino-4-(3-boronopropyl)pyrrolidine-3-carboxylic acid]: the IC50 against human arginase I (ARG I) and against arginase II (ARG II) was 101 to 500 nM each time. `N[C@@]1(C(=O)O)C[C@@H](CN(C2CCC2)C2CCC2)C[C@@H]1CCCB(O)O` [Example 6, (1S,2S,4S)-1-amino-2-(3-boronopropyl)-4-((dicyclobutylamino)methyl)cyclopentanecarboxylic acid]: the IC50 at human arginase I (ARG I) and against arginase II (ARG II) was 101 to 500 nM each time.

For the compound `N[C@@]1(C(=O)O)C[C@@H](CNC2Cc3ccccc3C2)C[C@@H]1CCCB(O)O` [Example 3, (1S,2S,4S)-1-amino-2-(3-boronopropyl)-4-(((2,3-dihydro-1H-inden-2-yl)amino)methyl)cyclopentanecarboxylic acid], the IC50 against human arginase I (ARG I) lay within 26 to 100 nM; on arginase II (ARG II), 101 to 500 nM. Turning to `N[C@@]1(C(=O)O)CCC[C@@H]1CCCB(O)O` [Example 8, (1S,2S)-1-amino-2-(3-boronopropyl)cyclopentanecarboxylic acid], the IC50 against human arginase I (ARG I) and on arginase II (ARG II) was 101 to 500 nM in each case. As to `N=C(NO)NCC[C@H](N)C(=O)O` [nor-NOHA, N^ω-hydroxy-nor-L-arginine], the “vascular response of resistance vessels to blood flow and pressure” value in assay [2] (spontaneously hypertensive animals) was “improved”. Besides, the blood pressure result in assay [2] (spontaneously hypertensive rats/animals) is “lowered blood pressure”. Regarding `CN[C@@]1(C(=O)O)CCC[C@@H]1CCCB(O)O` [Example 7, (1S,2S)-2-(3-boronopropyl)-1-(methylamino) cyclopentanecarboxylic acid], the half-maximal inhibitory concentration (IC50) against human arginase I (ARG I) and against arginase II (ARG II) was 501 to 1500 nM in each case.
